Laboratory results reported in patent US5789602A, “Physiologically active substances PF1092A, PF1092B and PF1092C, process for the production thereof, and contraceptives and anticancer drugs containing the same as active ingredients” (Meiji Seika Kaisha, Ltd., priority 1995, dated 1998).
“Also recorded” adds a separate entry of the source.

Columns and labels:
progesterone receptor = molecular target: T1, progesterone receptor (Sus scrofa, UniProt D0EWS6); assay: progesterone receptor binding activity (3H-progesterone, hog uterus cytosol); parameters: species or system hogs; conditions: 1 h, 30 μM test substance, 4° C., 60 minutes, read-out: inhibition of the binding of 3H-progesterone to the progesterone receptor (inhibition ratio)
T1 construct: from tissue; host or cells: hog uterus, cytosol (100,000×g supernatant)
T1 sequence (D0EWS6 1-934): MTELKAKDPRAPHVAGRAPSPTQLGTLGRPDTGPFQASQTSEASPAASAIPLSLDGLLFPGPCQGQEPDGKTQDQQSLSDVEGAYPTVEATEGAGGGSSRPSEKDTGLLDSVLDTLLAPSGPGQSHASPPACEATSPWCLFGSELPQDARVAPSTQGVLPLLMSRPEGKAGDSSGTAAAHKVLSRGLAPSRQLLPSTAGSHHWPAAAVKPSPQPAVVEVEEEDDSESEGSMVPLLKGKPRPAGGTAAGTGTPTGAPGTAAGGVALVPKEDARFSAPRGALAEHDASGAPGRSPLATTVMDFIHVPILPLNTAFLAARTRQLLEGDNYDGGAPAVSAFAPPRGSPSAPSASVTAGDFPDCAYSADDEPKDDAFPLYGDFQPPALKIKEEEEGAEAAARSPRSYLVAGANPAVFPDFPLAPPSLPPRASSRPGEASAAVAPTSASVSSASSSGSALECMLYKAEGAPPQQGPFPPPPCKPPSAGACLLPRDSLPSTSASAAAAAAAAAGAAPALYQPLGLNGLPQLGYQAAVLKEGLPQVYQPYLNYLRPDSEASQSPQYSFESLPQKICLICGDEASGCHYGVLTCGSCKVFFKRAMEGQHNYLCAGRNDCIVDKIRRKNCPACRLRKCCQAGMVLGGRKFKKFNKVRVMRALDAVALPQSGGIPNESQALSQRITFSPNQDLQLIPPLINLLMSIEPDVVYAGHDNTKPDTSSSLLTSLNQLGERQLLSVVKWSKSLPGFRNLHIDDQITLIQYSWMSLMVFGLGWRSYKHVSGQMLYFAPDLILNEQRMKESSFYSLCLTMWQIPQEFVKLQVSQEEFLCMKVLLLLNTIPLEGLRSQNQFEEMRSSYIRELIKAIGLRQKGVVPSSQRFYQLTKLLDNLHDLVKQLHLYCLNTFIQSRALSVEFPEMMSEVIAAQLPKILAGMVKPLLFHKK
Protocol: The progesterone receptor binding activity of substance PF1092A, substance PF1092B and substance PF1092C of the present invention was measured in the following manner in accordance with the method of H. Kondo et al. (J. Antibiotics, vol. 43, pp. 1533-1542, 1990). That is, uteri taken from hogs in 5 mM phosphate buffer were disrupted using Polytron homogenizer, and the resulting solution was subjected to centrifugation (100,000×g, 30 minutes) to separate the supernatant fluid which was used as the cytosol containing progesterone receptor.
In the assay of progesterone receptor binding activity, 40 μl of a solution of ^3 H-progesterone as a ligand of the receptor (3.84 TBq/mmol, 18.5 kBq/ml), 50 μl of the just obtained cytosol (2-3 mg protein/ml), 30 μM of substance PF1092A, substance PF1092B and substance PF1092C and 30 μM of medroxyprogesterone acetate (MPA) were put into a test tube and incubated at 4° C. for 60 minutes to effect the reaction and then mixed with 100 μl of 0.5% activated carbon solution. After 10 minutes of standing, this was subjected to centrifugation (2,000×g, 10 minutes), and radioactivity of the thus obtained supernatant fluid was measured using a liquid scintillation counter. Inhibition ratio was calculated based on the following formula in which radioactivity with no addition of the test drug was defined as the amount of total binding to the cytosol and radioactivity with the addition of MPA was defined as the amount of non-specific binding. [formula]

[1] = Solubility (physico-chemical properties); format: physicochemical; conditions: qualitative, in organic solvents and in water

Row | inhibition at 30 µM (progesterone receptor) [%] | SMILES | Solubility [1]
1 | ≥ 90 | CC(=O)OC1C(O)C=C2C=C3OC(=O)C(C)=C3CC2(C)C1C (stereo not drawn) [PF1092A] | soluble in chloroform, acetone, ethyl acetate, methanol and dimethyl sulfoxide, and insoluble in water and hexane
2 | ≥ 90 | CC(=O)OC1C=C2C=C3OC(=O)C(C)=C3CC2(C)C(C)C1O (stereo not drawn) [PF1092B] | soluble in chloroform, acetone, ethyl acetate, methanol and dimethyl sulfoxide, and insoluble in water and hexane
3 | ~70 | CC1=C2CC3(C)C(=CC(O)C(O)C3C)C=C2OC1=O (stereo not drawn) [PF1092C] | soluble in chloroform, acetone, ethyl acetate, methanol and dimethyl sulf oxide, and insoluble in water and hexane; also recorded: soluble in chloroform, acetone, ethyl acetate, methanol and dimethyl sulfoxide, and insoluble in water and hexane
